# In patent publication US20140275010A1, “QUATERNARY SALTS” (priority 2013, published 2014):
# How the values were obtained:
# [1] = tested on: WiDr cells: Colon cancer cells (wildtype SF3B1); test: Cell viability assay (CellTiter-Glo), WiDr cells; assay type: cell-based; conditions: 72 hr
# Protocol: (§1) Cells are seeded in 96-well plate with 2000 cells/100 uL/well and incubated overnight. Spent media was removed and fresh media containing compound (100 uL/well) with appropriate 9 concentrations are added. Each compound was treated in duplicate or triplicate manner at each concentration. DMSO concentration was adjusted to be 0.1%. Another plate was dedicated as Tz plate which was added 0.1% DMSO in media (100 uL/well) followed by CellTiter-Glo® (Promega corp., 50 uL/well) for ATP measurement as a surrogate of cell viability. Values from this plate are used as Tz. Compound treated plates are incubated for 72 hr at 37 C. Then, CellTiter-Glo® (50 uL/well) was added and ATP level was measured. Values from compound treated wells are used as Ti and DMSO treated wells are used as C.
# (§2) Percentage growth inhibition was calculated as:
# (§3) [(Ti−Tz)/(C−Tz)]×100 for concentrations for which Ti>/=Tz
# (§4) [(Ti−Tz)/Tz]×100 for concentrations for which Ti<Tz.
# (§5) *[time zero, (Tz), control growth (C), and test growth in the presence of drug with dose (Ti)] Growth inhibition of 50% (GI50) was calculated from [(Ti−Tz)/(C−Tz)]×100=50, which was the drug concentration resulting in a 50% reduction in the net protein increase in control cells during the drug incubation. The LC50 (concentration of drug resulting in a 50% reduction in the measured value at the end of the drug treatment as compared to that at the beginning) indicating a net loss of cells following treatment was calculated from [(Ti−Tz)/Tz]×100=−50.
# (§6) Emax was defined as highest growth inhibition that particular compound achieved in tested dose range.
# [2] = tested on: WiDr-R cells: Colon cancer cells (chemically-induced SF3B1 mutant which is resistant to E7107 (R1074H mutation)); test: Cell viability assay (CellTiter-Glo), WiDr-R cells; assay type: cell-based; conditions: 72 hr
# Protocol: as §1, §2, §3, §4, §5, §6
# [3] = tested on: Panc 05.04 cells: Pancreatic cancer cells (Q699H and K700E mutations in SF3B1); test: Cell viability assay (CellTiter-Glo), Panc 05.04 cells; assay type: cell-based; conditions: 72 hr; for Gl50 Panc 05.04: Panc 05.04 pancreatic cancer cells, SF3B1 Q699H and K700E, CellTiter-Glo; for Emax Panc 05.04: highest growth inhibition achieved in tested dose range
# Protocol: as §1, §2, §3, §4, §5, §6
# [4] = tested on: Ad2 pre-mRNA splicing in HeLa nuclear extract; test: In vitro splicing (biochemical) assay; conditions: in vitro splicing of Ad2 pre-mRNA, 30° C., 90 min, read-out: Biochem IC50
# Protocol: In Vitro Splicing (Biochemical) Assay Protocol
# Biotin-labeled pre-mRNA of an adenovirus type 2 construct with a deletion of intervening sequence (Ad2)^1 was prepared by in vitro transcription. The Ad2 construct containing Exon 1 (41 nt), Intron (231 nt), and Exon 2 (72 nt) was generated by gene synthesis and cloned into the EcoRI and XbaI sites of pGEM-3Z (Promega) by Genewiz. The plasmid was then linearized by XbaI digestion and purified. In vitro transcription and purification of transcribed pre-mRNA were performed using the MEGAScript T7 kit (Invitrogen) and MEGAclear kit (Invitrogen), respectively, following the manufacturer instructions. The ratio of biotin-16-UTP (Roche) to cold UTP was 1:13 to incorporate approximately two biotin molecules per spliced Ad2 mRNA.
# In vitro splicing assay was performed at 30° C. in 25 μL reaction mixtures containing 95 μg HeLa nuclear extract (Promega), 47 nM Ad2 pre-mRNA, 25 U RNasin RNase inhibitor (Promega), 1×SP buffer (0.5 mM ATP, 20 mM creatine phosphate, 1.6 mM MgCl2), and compounds in DMSO (with 1% final concentration of DMSO). After 90 min of incubation, the reaction was stopped by addition of 18 μL of 5M NaCl, and the mixtures were incubated with 10 μL of M-280 streptavidin-coated magnetic beads (Invitrogen) for 30 min at room temperature to capture Ad2 pre- and spliced mRNA. The beads were washed twice with 100 uL buffer containing 10 mM Tris pH=7.5, 1 mM EDTA and 2M NaCl, and then incubated in RNA gel loading buffer containing 95% formamide at 70° C. for 10 min to elute the RNAs. Ad2 RNAs were resolved by 6% TBE-UREA gel, transferred to a nylon membrane, UV cross-linked, and probed with an IR-dye labeled streptavidin (LiCor) using LiCor detection. The amount of spliced RNA was quantified by measuring the band fluorescent intensity using LiCor software.
Compound,Gl50 WiDr [1],Gl50 WiDr-R [2],Gl50 Panc 05.04 [3],Emax Panc 05.04 [3],IC50 [4]
CC[C@H](O)[C@@H](C)[C@H]1O[C@@H]1C[C@@](C)(O)/C=C/C=C(\C)[C@H]1OC(=O)CCCCC[C@@H](OC(=O)N2CC[N+](C)(C3CCCCCC3)CC2)/C=C/[C@@H]1C.[I-] [Cpd. 31],3285 nM,>10000 nM,2458 nM,−22%,
CC[C@H](O)[C@@H](C)[C@H]1O[C@@H]1C[C@@](C)(O)/C=C/C=C(\C)[C@H]1OC(=O)C[C@H](O)CC[C@@](C)(O)[C@@H](OC(=O)N2CC[N+](Cc3ccccc3)(C3CCCCCC3)CC2)/C=C/[C@@H]1C.[Br-] [Cpd. 18],162 nM,,139.2 nM,−55%,
CC[C@H](O)[C@@H](C)[C@H]1O[C@@H]1C[C@H](C)/C=C/C=C(\C)[C@H]1OC(=O)C[C@H](O)CC[C@@](C)(O)[C@@H](OC(=O)N2C[C@H]3C[C@@H]2C[N+]3(C)C)/C=C/[C@@H]1C.[I-] [Cpd. 16],>1000 nM,>1000 nM,1746 nM,−27%,
CC[C@H](O)[C@@H](C)[C@H]1O[C@@H]1C[C@H](C)/C=C/C=C(\C)[C@H]1OC(=O)C[C@H](O)CC[C@@](C)(OC(=O)N2CC[N+](C)(C)CC2)[C@@H](OC(C)=O)/C=C/[C@@H]1C.[I-] [Cpd. 28],456.0 nM,>1000 nM,413.3 nM,−31%,
CC[C@H](O)[C@@H](C)[C@H]1O[C@@H]1C[C@H](C)/C=C/C=C(\C)[C@H]1OC(=O)C[C@H](O)CC[C@@](C)(OC(=O)N2CC[N+](C)(C3CCCCCC3)CC2)[C@@H](OC(C)=O)/C=C/[C@@H]1C.[I-] [Cpd. 26],1491.0 nM,>10000 nM,5305 nM,,
C=CC[N+]1(C2CCCCCC2)CCN(C(=O)O[C@H]2/C=C/[C@H](C)[C@@H](/C(C)=C/C=C/[C@](C)(O)C[C@H]3O[C@@H]3[C@H](C)[C@@H](O)CC)OC(=O)C[C@H](O)CC[C@@]2(C)O)CC1.[I-] [Cpd. 20],289 nM,,316.9 nM,−67.5%,
CC[C@H](O)[C@@H](C)[C@H]1O[C@@H]1C[C@H](C)/C=C/C=C(\C)[C@H]1OC(=O)C[C@H](O)CC[C@@](C)(O)[C@@H](OC(=O)NCCC[N+]2(C)CCOCC2)/C=C/[C@@H]1C.[I-] [Cpd. 4],67.4 nM,,41.5 nM,−75%,
C=CC[N+]1(C2CCCCCC2)CCN(C(=O)O[C@H]2/C=C/[C@H](C)[C@@H](/C(C)=C/C=C/[C@](C)(O)C[C@H]3O[C@@H]3[C@H](C)[C@@H](O)CC)OC(=O)C[C@H](O)CC[C@@]2(C)O)CC1.[Br-] [Cpd. 19],551 nM,,808.7 nM,−45%,
CC[C@H](O)[C@@H](C)[C@H]1O[C@@H]1C[C@H](C)/C=C/C=C(\C)[C@H]1OC(=O)C[C@H](O)CC[C@@](C)(O)[C@@H](OC(=O)N2CC[N+](C)(C3CCCCC3)CC2)/C=C/[C@@H]1C.[I-] [Cpd. 6],227.0 nM,>1000 nM,1593 nM,−8.1%,
CC[C@H](O)[C@@H](C)[C@H]1O[C@@H]1C[C@H](C)/C=C/C=C(\C)[C@H]1OC(=O)C[C@H](O)CC[C@@](C)(O)[C@@H](OC(=O)N2CCC[N+](C)(C(C)C)CC2)/C=C/[C@@H]1C.[I-] (stereo partly shown) [Cpd. 10],1.9 nM,>1000 nM,1.3 nM,−65%,60 nM
CC[C@H](O)[C@@H](C)[C@H]1O[C@@H]1C[C@H](C)/C=C/C=C(\C)[C@H]1OC(=O)C[C@H](O)CC[C@@](C)(O)[C@@H](OC(=O)N2CCC[N+](C)(C3CCCCC3)CC2)/C=C/[C@@H]1C.[I-] (stereo partly shown) [Cpd. 11],958.0 nM,>1000 nM,410.7 nM,−87%,
CC[C@H](O)[C@@H](C)[C@H]1O[C@@H]1C[C@H](C)/C=C/C=C(\C)[C@H]1OC(=O)C[C@H](O)CC[C@@](C)(OC(=O)N2CC[N+](C)(C(C)C)CC2)[C@@H](OC(C)=O)/C=C/[C@@H]1C.[I-] [Cpd. 27],6781.0 nM,>10000 nM,1115 nM,−56%,
CC[C@H](O)[C@@H](C)[C@H]1O[C@@H]1C[C@H](C)/C=C/C=C(\C)[C@H]1OC(=O)C[C@H](O)CC[C@@](C)(O)[C@@H](OC(=O)N2CCC([N+]3(C)CCCCC3)CC2)/C=C/[C@@H]1C.[I-] [Cpd. 14],51.4 nM,>1000 nM,53.3 nM,−70%,
CC[C@H](O)[C@@H](C)[C@H]1O[C@@H]1C[C@H](C)/C=C/C=C(\C)[C@H]1OC(=O)C[C@H](O)CC[C@@](C)(O)[C@@H](OC(=O)N2CC[N+](C)(C3CCCCCC3)CC2)/C=C/[C@@H]1C.[I-] [Cpd. 1],1.1 nM,368 nM,0.6 nM,−61%,10 nM
CC[C@H](O)[C@@H](C)[C@H]1O[C@@H]1C[C@H](C)/C=C/C=C(\C)[C@H]1OC(=O)C[C@H](O)CC[C@@](C)(O)[C@@H](OC(=O)N2CCC[N+](C)(C)CC2)/C=C/[C@@H]1C.[I-] [Cpd. 8],568.0 nM,>1000 nM,431.6 nM,−74%,
CC[C@H](O)[C@@H](C)[C@H]1O[C@@H]1C[C@H](C)/C=C/C=C(\C)[C@H]1OC(=O)C[C@H](O)CC[C@@](C)(O)[C@@H](OC(=O)N2CC3(C2)C[N+](C)(C2CCCCCC2)C3)/C=C/[C@@H]1C.[I-] [Cpd. 12],106.0 nM,>1000 nM,79.2 nM,−89%,
CC[C@H](O)[C@@H](C)[C@H]1O[C@@H]1C[C@H](C)/C=C/C=C(\C)[C@H]1OC(=O)C[C@H](O)CC[C@@](C)(O)[C@@H](OC(=O)N(C)C2CC[N+](C)(C)CC2)/C=C/[C@@H]1C.[I-] [Cpd. 15],117.0 nM,>1000 nM,234.8 nM,−53%,
CC[C@H](O)[C@@H](C)[C@H]1O[C@@H]1C[C@H](C)/C=C/C=C(\C)[C@H]1OC(=O)C[C@H](O)CC[C@@](C)(O)[C@@H](OC(=O)N2CCC([N+]3(C)CCCC3)CC2)/C=C/[C@@H]1C.[I-] [Cpd. 13],44.1 nM,>1000 nM,80.4 nM,−61%,
CCC(=O)C(C)C1OC1CC(C)(O)C=CC=C(C)C1OC(=O)CC(O)CCC(C)(O)C(OC(=O)N2CC[N+](C)(C3CCCCCC3)CC2)C=CC1C.[I-] (stereo not shown) [Cpd. 25],5500.0 nM,>5500 nM,10000 nM,,
CC[C@H](O)[C@@H](C)[C@H]1O[C@@H]1C[C@H](C)/C=C/C=C(\C)[C@H]1OC(=O)C[C@H](O)CC[C@@](C)(O)[C@@H](OC(=O)NCCC[N+](C)(C)C)/C=C/[C@@H]1C.[I-] [Cpd. 5],176.0 nM,>10000 nM,120.8 nM,−79%,
